Data as given in patent publication US9302999B2, “Substituted triazoles as herbicides” (E. I. DU PONT DE NEMOURS AND COMPANY, priority 2012, dated 2016).
Like-named read-outs stand apart in the source and are kept apart here.

Experiments:
Type in all cases: in vivo
[1] = test system: crabgrass, large (large crabgrass, Digitaria sanguinalis); test: Test A pre-/postemergence: crabgrass, large; settings: Digitaria sanguinalis, 240 h; for pest or weed control at 125 g/ha: 125 g ai/ha; for pest or weed control at 500 g/ha: 500 g ai/ha
How it was run: (§1)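 Soil medium was loam blended with sand; treatments pre- and postemergence were applied concurrently, postemergence at one- to two-leaf stage. Approximately ten days in greenhouse preceded visual comparison with untreated controls, scored 0 (no effect) to 100 (complete control).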

[2] = test system: foxtail, giant (giant foxtail, Setaria faberii); test: Test A pre-/postemergence: foxtail, giant; settings: Setaria faberi, 240 h; for pest or weed control at 125 g/ha: 125 g ai/ha; for pest or weed control at 500 g/ha: 500 g ai/ha
How it was run: as §1

[3] = test system: wheat (Triticum aestivum); test: Test A pre-/postemergence: wheat; settings: Triticum aestivum, 240 h; for plant injury at 125 g/ha: 125 g ai/ha; for plant injury at 500 g/ha: 500 g ai/ha
How it was run: as §1

corn (Zea mays) = test: Test A pre-/postemergence: corn; settings: Zea mays, 240 h
How it was run: as §1

[4] = test system: sedge, umbrella (small-flower umbrella sedge Cyperus difformis); test: Test B flooded paddy: sedge, umbrella; settings: Flood; 250 g ai/ha; applied to paddy water at 2-leaf stage; visually evaluated after 13 to 15 days
How it was run: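 Response scored visually, 0–100 relative to controls, 13–15 days after the compound was applied into paddy water; plants were at the 2-leaf stage in pots kept flooded to 3 cm.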

Cc1nn(-c2ccc(F)cc2F)nc1Cc1ccnc(C(F)(F)F)c1 [Compound 54, 4-[[2-(2,4-difluorophenyl)-5-methyl-2H-1,2,3-triazol-4-yl]methyl]-2-(trifluoromethyl)pyridine]
pest or weed control at 125 g/ha ([1]; post-emergence, Postemergence, 0 to 100 scale, 0 is no effect, 100 is complete control, read-out: Crabgrass, Large plant response rating): 80% | pest or weed control at 500 g/ha ([1]; post-emergence, Postemergence, visual rating on 0 to 100 scale (0 no effect, 100 complete control), approximately ten days, read-out: Crabgrass, Large plant response rating): 90% | pest or weed control at 125 g/ha ([1]; pre-emergence, Preemergence, 0 to 100 scale (0 no effect, 100 complete control), read-out: Plant response rating, Crabgrass, Large): 100% | pest or weed control at 500 g/ha ([1]; pre-emergence, Preemergence, 0 to 100 scale, 0 is no effect, 100 is complete control, read-out: Plant response rating, Crabgrass, Large): 100% | pest or weed control at 125 g/ha ([2]; post-emergence, Postemergence, 0 to 100 scale, 0 is no effect, 100 is complete control, read-out: Foxtail, Giant plant response rating): 80% | pest or weed control at 500 g/ha ([2]; post-emergence, Postemergence, visual rating on 0 to 100 scale (0 no effect, 100 complete control), approximately ten days, read-out: Foxtail, Giant plant response rating): 90% | pest or weed control at 125 g/ha ([2]; pre-emergence, Preemergence, 0 to 100 scale (0 no effect, 100 complete control), read-out: Plant response rating, Foxtail, Giant): 100% | pest or weed control at 500 g/ha ([2]; pre-emergence, Preemergence, 0 to 100 scale, 0 is no effect, 100 is complete control, read-out: Plant response rating, Foxtail, Giant): 100% | plant injury at 125 g/ha ([3]; post-emergence, Postemergence, 0 to 100 scale, 0 is no effect, 100 is complete control, read-out: Wheat plant response rating): 20% | plant injury at 500 g/ha ([3]; post-emergence, Postemergence, visual rating on 0 to 100 scale (0 no effect, 100 complete control), approximately ten days, read-out: Wheat plant response rating): 30% | plant injury at 125 g/ha ([3]; pre-emergence, Preemergence, 0 to 100 scale (0 no effect, 100 complete control), read-out: Plant response rating, Wheat): 10% | plant injury at 500 g/ha ([3]; pre-emergence, Preemergence, 0 to 100 scale, 0 is no effect, 100 is complete control, read-out: Plant response rating, Wheat): 30% | plant injury at 125 g/ha (corn (Zea mays); post-emergence, Postemergence, 125 g ai/ha, 0 to 100 scale, 0 is no effect, 100 is complete control, read-out: Corn plant response rating): 30% | plant injury at 500 g/ha (corn (Zea mays); post-emergence, Postemergence, 500 g ai/ha, visual rating on 0 to 100 scale (0 no effect, 100 complete control), approximately ten days, read-out: Corn plant response rating): 60% | Corn plant response rating (crop injury, 0 = no effect, 100 = complete kill) at 125 g/ha (corn (Zea mays); pre-emergence, Preemergence, 125 g ai/ha, 0 to 100 scale (0 no effect, 100 complete control)): 10% | Corn plant response rating (crop injury, 0 = no effect, 100 = complete kill) at 500 g/ha (corn (Zea mays); pre-emergence, Preemergence, 500 g ai/ha, 0 to 100 scale, 0 is no effect, 100 is complete control): 40% | Plant response rating, Sedge, Umbrella (0 to 100 scale, 0 is no effect, 100 is complete control) [4]: 85
